US10836732B2, “Compounds for combating arthropods” (priority 2013, dated 2020)

What was measured:
Assay type in all cases: in vivo
Lucilia cuprina [1] = test: Lucilia cuprina test (LUCICU); details: 20 ppm, L1 larvae, after 2 days
Method: (§1) Solvent: dimethyl sulphoxide
(§2) To produce an appropriate active ingredient formulation, 10 mg of active ingredient are mixed with 0.5 ml of dimethyl sulphoxide, and the concentrate is diluted with water to the desired concentration.
(§3) About 20 L1 larvae of the Australian sheep blowfly (Lucilia cuprina) are transferred into a test vessel containing minced horsemeat and the active ingredient preparation of the desired concentration.
(§4) After 2 days, the kill in % is determined 100% means that all the larvae have been killed; 0% means that none of the larvae have been killed.

Rhipicephalus sanguineus [2] = test: Rhipicephalus sanguineus - in vitro contact tests with brown dog ticks (RHIPSA); details: 1 μg/cm^2, adult ticks, after 48 h
Method: (§5) For the coating of the test tubes, 9 mg of active ingredient are first dissolved in 1 ml of acetone p.a. and then diluted to the desired concentration with acetone p.a. 250 μl of the solution are distributed homogeneously on the inner walls and base of a test tube (25 ml crimp top vial (Fisher Scientific, Order No. 320 55 60) by turning and rocking on a “Rock ‘n’ Roller” (Model L202, Labinco; rocking rotation at 30 rpm in a fume hood for 2 h). With 900 ppm active ingredient solution and internal surface area 44.7 cm^2, given homogeneous distribution, an area-based dose of 5 μg/cm^2 is achieved.
Preparation examples for the inventive halogen-substituted compounds of the formula (I) are tested for their contact efficiency with ectoparasitic arachnids (brown dog ticks here). For this purpose, crimp top vials are coated with 250 μl of an acetone solution of the active ingredient as described above. […] After 48 h, efficacy (knockdown and mortality) and mortality are determined To this end, the ticks are knocked to the floor of the tube and incubated on a hotplate at 45-50° C. for not more than 5 min Ticks which remain motionless on the floor or move in such an uncoordinated manner that they are unable to deliberately avoid the heat by climbing upwards are considered to be dead or knocked down (moribund).

Phaedon cochleariae = Phaedon cochleariae - spray test; details: 100 g/ha, Chinese cabbage leaf discs, after 7 days
Method: (§6) Solvent: 78.0 parts by weight of acetone
(§7) • 1.5 parts by weight of dimethylformamide Emulsifier: alkylaryl polyglycol ether
(§8) To produce an appropriate active ingredient formulation, 1 part by weight of active ingredient is dissolved using the specified parts by weight of solvent and made up with water containing an emulsifier concentration of 1000 ppm until the desired concentration is attained. To produce further test concentrations, the preparation is diluted with emulsifier-containing water.
Discs of Chinese cabbage leaves (Brassica pekinensis) are sprayed with an active ingredient formulation of the desired concentration and, after drying, populated with larvae of the mustard beetle (Phaedon cochleariae).
After 7 days, efficacy in % is determined 100% means that all the beetle larvae have been killed; 0% means that no beetle larvae have been killed.

Lucilia cuprina [3] = test: Lucilia cuprina - test; details: 100 ppm, L1 larvae, after 2 days
Method: as §1, §2, §3, §4

Rhipicephalus sanguineus [4] = test: Rhipicephalus sanguineus - in vitro contact tests with adult brown dog ticks; details: 5 μg/cm^2, adult dog ticks, after 48 h
Method: For the coating of the test tubes, 9 mg of active ingredient are first dissolved in 1 ml of acetone p.a. and then diluted to the desired concentration with acetone p.a. 250 μl of the solution are distributed homogeneously on the inner walls and base of a 25 ml test tube by turning and rocking on an orbital shaker (rocking rotation at 30 rpm for 2 h). With 900 ppm active ingredient solution and internal surface 44.7 cm^2, given homogeneous distribution, an area-based dose of 5 μg/cm^2 is achieved.
After the solvent has evaporated off, the tubes are populated with 5-10 adult dog ticks (Rhipicephalus sanguineus), sealed with a perforated plastic lid and incubated in a horizontal position in the dark at room temperature and ambient humidity. After 48 h, efficacy is determined To this end, the ticks are knocked to the floor of the tube and incubated on a hotplate at 45-50° C. for not more than 5 min Ticks which remain motionless on the floor or move in such an uncoordinated manner that they are unable to deliberately avoid the heat by climbing upwards are considered to be dead or moribund.
An efficacy of 100% means that all the ticks were dead or moribund. 0% efficacy means that none of the ticks had been harmed.

Spodoptera frugiperda = Spodoptera frugiperda - spray test; details: 100 g/ha, maize leaf discs, after 7 days
Method: as §6, §7, §8
Leaf discs of maize (Zea mays) are sprayed with an active ingredient formulation of the desired concentration and, after drying, populated with caterpillars of the armyworm (Spodoptera frugiperda).
After 7 days, efficacy in % is determined. 100% means that all the caterpillars have been killed; 0% means that no caterpillars have been killed.

Ctenocephalides felis = Ctenocephalides felis - in vitro contact tests with fleas (CTECFE); details: 1 μg/cm^2, adult fleas, after 48 h
Method: as §5
Preparation examples for the inventive halogen-substituted compounds of the formula (I) are tested for their contact efficiency with ectoparasitic insects (cat fleas here). For this purpose, crimp top vials are coated with 250 μl of an acetone solution of the active ingredient as described above. After the solvent has evaporated off, the tubes are populated with 5-10 fleas (adult Ctenocephalides felis), sealed with a perforated plastic lid and incubated in a horizontal position at room temperature and ambient humidity. After 48 h, efficacy (knockdown and mortality) and mortality are determined To this end, the test tubes are stood upright and the fleas are knocked to the base of the tube. […]

Musca domestica = Musca domestica test (MUSCDO); details: 20 ppm, adult houseflies, after 2 days
Method: as §1, §2
Vessels containing a sponge treated with sugar solution and the active ingredient formulation of the desired concentration are populated with 10 adult houseflies (Musca domestica).
After 2 days, the kill in % is determined 100% means that all of the flies have been killed or knocked down; 0% means that none of the flies have been killed or knocked down.

Boophilus microplus = Boophilus microplus - injection test; details: 20 μg/animal, injected into engorged adult female cattle ticks, after 7 days
Method: as §1
To produce an appropriate active ingredient formulation, 10 mg of active ingredient are mixed with 0.5 ml of solvent and the concentrate is diluted with solvent to the desired concentration.
1 μl of the active ingredient solution is injected into the abdomen of 5 engorged adult female cattle ticks (Boophilus microplus). The animals are transferred into dishes and kept in a climate-controlled room.
Efficacy is assessed after 7 days by laying of fertile eggs. Eggs which are not visibly fertile are stored in a climate-controlled cabinet until the larvae hatch after about 42 days. An efficacy of 100% means that none of the ticks has laid any fertile eggs; 0% means that all the eggs are fertile.

Cc1cc(C(F)(C(F)(F)F)C(F)(F)F)cc(C)c1-c1cn(-c2ccc(Cl)c(C(=O)NC3CC3)c2)nn1 [I-T48-1, 2-chloro-N-cyclopropyl-5-[4-[2,6-dimethyl-4-[1,2,2,2-tetrafluoro-1-(trifluoromethyl)ethyl]phenyl]triazol-1-yl]benzamide]
100%: efficacy (kill in %) (Lucilia cuprina [1]) | efficacy (dead or knocked down) (Rhipicephalus sanguineus [2]) | efficacy (beetle larvae killed) (Phaedon cochleariae) | efficacy (kill in %) (Lucilia cuprina [3]) | efficacy (dead or moribund) (Rhipicephalus sanguineus [4]) | efficacy (caterpillars killed) (Spodoptera frugiperda) | efficacy (moribund/knocked down or dead) (Ctenocephalides felis) | efficacy (killed or knocked down) (Musca domestica) | efficacy (no fertile eggs laid) (Boophilus microplus)
